How the values were obtained:
Conditions in all cases: Compound concentration 10 µM
[1] = molecular target: T1, Alpha-2A adrenergic receptor (Homo sapiens) (UniProt P08913)
T1 sequence (whole entry): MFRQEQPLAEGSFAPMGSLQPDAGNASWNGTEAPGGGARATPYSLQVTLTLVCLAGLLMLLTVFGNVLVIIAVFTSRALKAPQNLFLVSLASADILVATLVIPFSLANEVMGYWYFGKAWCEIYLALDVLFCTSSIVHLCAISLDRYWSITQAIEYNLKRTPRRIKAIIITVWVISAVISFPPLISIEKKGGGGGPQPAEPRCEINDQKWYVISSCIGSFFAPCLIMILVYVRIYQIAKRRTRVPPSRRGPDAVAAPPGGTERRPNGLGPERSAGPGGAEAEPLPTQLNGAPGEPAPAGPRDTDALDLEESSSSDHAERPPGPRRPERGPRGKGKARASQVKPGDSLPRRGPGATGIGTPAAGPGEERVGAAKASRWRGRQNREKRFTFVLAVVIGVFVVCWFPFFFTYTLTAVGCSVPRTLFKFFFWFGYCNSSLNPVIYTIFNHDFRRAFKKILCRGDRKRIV

[2] = molecular target: D(1A) dopamine receptor (Homo sapiens) (UniProt P21728)
[3] = molecular target: Sodium-dependent noradrenaline transporter (Homo sapiens) (UniProt P23975)
[4] = molecular target: Kappa-type opioid receptor (Homo sapiens) (UniProt P41145)
[5] = molecular target: Muscarinic acetylcholine receptor M3 (Homo sapiens) (UniProt P20309)
[6] = molecular target: T2, D(4) dopamine receptor (Homo sapiens) (UniProt P21917)
T2 sequence (whole entry): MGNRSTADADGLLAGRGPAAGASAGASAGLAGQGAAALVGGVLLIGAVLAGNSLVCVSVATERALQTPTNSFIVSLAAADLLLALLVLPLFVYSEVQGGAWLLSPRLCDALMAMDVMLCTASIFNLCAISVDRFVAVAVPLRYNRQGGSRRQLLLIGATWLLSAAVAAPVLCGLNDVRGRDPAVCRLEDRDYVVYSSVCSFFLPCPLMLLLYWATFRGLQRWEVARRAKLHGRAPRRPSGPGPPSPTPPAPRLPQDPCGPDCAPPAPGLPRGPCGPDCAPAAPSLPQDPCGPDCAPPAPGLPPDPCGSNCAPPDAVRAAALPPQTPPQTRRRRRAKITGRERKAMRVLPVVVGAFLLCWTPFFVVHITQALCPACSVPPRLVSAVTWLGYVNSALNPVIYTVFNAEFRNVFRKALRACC

[7] = molecular target: 5-hydroxytryptamine receptor 2B (Homo sapiens) (UniProt P41595)
[8] = molecular target: T3, 5-hydroxytryptamine receptor 2C (Homo sapiens) (UniProt P28335)
T3 sequence (whole entry): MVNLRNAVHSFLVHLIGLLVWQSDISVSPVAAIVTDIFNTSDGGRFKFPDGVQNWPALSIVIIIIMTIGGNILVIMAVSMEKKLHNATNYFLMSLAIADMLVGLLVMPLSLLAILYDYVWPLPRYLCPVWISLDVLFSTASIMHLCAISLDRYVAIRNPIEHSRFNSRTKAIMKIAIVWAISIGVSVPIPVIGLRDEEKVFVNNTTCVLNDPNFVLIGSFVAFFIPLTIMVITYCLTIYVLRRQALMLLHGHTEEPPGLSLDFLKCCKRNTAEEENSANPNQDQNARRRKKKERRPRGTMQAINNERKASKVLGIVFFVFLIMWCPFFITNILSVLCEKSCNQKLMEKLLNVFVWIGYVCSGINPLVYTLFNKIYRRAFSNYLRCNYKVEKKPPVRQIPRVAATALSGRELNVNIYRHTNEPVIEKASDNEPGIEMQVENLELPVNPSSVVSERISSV

[9] = molecular target: T4, Alpha-1B adrenergic receptor (Homo sapiens) (UniProt P35368)
T4 sequence (whole entry): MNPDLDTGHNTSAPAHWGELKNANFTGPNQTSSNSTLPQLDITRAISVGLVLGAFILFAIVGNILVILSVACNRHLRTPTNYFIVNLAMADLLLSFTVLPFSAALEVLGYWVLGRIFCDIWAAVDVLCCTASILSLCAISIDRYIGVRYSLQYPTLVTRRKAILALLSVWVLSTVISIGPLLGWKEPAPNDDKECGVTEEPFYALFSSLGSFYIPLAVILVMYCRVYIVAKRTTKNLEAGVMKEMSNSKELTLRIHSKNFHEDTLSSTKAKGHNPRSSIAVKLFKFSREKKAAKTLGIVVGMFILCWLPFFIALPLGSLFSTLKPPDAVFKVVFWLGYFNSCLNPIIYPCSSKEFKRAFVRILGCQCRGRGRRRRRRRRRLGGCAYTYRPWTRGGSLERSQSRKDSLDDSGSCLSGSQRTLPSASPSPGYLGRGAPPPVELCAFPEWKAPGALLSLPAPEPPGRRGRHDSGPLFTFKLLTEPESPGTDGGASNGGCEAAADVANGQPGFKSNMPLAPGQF

[10] = molecular target: Histamine H4 receptor (Homo sapiens) (UniProt Q9H3N8)
[11] = molecular target: 5-hydroxytryptamine receptor 1D (Homo sapiens) (UniProt P28221)
[12] = molecular target: 5-hydroxytryptamine receptor 6 (Homo sapiens) (UniProt P50406)
[13] = molecular target: T5, 5-hydroxytryptamine receptor 3A (Homo sapiens) (UniProt P46098)
T5 sequence (whole entry): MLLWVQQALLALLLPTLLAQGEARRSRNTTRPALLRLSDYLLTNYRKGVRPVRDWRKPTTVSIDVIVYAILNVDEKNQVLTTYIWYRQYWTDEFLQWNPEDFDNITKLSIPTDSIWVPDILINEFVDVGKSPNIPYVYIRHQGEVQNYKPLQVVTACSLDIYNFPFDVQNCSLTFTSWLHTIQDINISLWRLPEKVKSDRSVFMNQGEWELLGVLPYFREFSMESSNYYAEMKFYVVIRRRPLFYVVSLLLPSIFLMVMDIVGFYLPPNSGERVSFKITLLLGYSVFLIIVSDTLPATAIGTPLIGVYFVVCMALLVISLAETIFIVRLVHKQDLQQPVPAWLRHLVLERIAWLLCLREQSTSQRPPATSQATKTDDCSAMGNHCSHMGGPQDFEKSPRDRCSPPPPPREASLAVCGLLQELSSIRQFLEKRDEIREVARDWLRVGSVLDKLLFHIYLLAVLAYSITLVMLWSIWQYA

[14] = molecular target: Beta-1 adrenergic receptor (Homo sapiens) (UniProt P08588)
Beta-1 adrenergic receptor (Homo sapiens), sequence (P08588 whole entry, looked up): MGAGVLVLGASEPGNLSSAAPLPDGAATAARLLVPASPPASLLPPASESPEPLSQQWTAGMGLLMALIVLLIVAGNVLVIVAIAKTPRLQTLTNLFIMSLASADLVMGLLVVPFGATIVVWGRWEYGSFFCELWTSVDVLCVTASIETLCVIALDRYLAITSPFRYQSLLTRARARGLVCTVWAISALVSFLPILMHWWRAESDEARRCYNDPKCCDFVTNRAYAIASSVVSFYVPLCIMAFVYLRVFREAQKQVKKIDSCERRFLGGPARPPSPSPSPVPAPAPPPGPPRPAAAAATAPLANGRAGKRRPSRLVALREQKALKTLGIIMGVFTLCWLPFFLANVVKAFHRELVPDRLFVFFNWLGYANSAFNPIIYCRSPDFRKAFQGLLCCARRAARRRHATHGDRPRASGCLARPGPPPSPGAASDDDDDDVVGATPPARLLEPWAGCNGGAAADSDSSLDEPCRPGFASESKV

Histamine H4 receptor (Homo sapiens), sequence (Q9H3N8 whole entry): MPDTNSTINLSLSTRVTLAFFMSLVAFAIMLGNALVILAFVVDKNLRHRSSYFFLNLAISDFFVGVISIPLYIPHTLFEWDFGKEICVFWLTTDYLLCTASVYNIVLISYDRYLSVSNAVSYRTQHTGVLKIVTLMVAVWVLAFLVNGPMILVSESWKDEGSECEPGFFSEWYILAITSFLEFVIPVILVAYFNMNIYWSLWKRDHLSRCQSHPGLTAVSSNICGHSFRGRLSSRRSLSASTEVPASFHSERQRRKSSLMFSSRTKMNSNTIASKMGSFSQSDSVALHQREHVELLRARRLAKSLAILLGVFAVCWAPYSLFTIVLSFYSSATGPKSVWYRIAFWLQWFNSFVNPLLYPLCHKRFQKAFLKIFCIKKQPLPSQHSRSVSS
Kappa-type opioid receptor (Homo sapiens), sequence (P41145 whole entry): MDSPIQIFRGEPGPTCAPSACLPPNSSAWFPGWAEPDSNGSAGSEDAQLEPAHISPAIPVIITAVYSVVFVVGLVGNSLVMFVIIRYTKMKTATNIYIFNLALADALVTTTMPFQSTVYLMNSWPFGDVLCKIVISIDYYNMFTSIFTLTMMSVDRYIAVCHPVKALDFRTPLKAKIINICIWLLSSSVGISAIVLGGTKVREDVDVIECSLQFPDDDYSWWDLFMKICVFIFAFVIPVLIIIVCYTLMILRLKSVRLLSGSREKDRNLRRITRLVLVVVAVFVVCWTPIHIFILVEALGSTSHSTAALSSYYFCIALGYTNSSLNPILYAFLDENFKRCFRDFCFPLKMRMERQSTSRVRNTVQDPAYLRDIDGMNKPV
5-hydroxytryptamine receptor 1D (Homo sapiens), sequence (P28221 whole entry): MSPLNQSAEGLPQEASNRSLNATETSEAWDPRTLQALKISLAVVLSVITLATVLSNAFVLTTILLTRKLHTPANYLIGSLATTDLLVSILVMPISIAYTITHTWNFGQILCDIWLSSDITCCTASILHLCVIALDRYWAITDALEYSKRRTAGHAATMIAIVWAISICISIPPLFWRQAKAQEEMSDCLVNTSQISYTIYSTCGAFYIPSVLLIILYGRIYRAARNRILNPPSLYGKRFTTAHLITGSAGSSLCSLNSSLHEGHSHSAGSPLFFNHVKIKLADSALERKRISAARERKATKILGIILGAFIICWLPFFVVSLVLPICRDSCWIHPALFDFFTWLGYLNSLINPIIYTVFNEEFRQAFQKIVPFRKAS
D(1A) dopamine receptor (Homo sapiens), sequence (P21728 whole entry): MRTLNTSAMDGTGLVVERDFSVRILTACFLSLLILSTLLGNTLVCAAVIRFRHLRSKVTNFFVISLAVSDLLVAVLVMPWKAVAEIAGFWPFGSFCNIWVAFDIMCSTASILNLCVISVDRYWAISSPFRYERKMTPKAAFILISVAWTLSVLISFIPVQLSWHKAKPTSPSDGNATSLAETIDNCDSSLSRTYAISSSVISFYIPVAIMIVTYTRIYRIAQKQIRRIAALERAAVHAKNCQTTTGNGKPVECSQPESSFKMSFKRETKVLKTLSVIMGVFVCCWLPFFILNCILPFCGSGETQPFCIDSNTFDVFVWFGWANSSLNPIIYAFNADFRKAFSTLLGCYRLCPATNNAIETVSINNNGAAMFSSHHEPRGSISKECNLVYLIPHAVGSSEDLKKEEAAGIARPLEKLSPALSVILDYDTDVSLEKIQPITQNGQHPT
Sodium-dependent noradrenaline transporter (Homo sapiens), sequence (P23975 whole entry): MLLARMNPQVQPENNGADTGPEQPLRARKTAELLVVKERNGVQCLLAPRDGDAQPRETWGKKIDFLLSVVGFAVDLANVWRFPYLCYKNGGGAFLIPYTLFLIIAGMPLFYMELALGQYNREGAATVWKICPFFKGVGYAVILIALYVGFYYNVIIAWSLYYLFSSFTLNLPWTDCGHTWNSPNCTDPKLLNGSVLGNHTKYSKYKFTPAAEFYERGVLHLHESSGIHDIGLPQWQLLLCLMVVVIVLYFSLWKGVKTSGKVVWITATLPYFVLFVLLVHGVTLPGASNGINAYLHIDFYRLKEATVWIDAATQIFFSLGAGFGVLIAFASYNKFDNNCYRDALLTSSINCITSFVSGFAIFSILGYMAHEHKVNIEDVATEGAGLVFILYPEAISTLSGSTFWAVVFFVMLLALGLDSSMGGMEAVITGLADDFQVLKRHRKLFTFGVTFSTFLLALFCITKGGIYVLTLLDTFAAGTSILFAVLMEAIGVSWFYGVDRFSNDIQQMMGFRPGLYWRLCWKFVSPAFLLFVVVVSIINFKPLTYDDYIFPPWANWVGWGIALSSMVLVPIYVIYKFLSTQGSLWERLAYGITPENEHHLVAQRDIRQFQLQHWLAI
5-hydroxytryptamine receptor 2B (Homo sapiens), sequence (P41595 whole entry): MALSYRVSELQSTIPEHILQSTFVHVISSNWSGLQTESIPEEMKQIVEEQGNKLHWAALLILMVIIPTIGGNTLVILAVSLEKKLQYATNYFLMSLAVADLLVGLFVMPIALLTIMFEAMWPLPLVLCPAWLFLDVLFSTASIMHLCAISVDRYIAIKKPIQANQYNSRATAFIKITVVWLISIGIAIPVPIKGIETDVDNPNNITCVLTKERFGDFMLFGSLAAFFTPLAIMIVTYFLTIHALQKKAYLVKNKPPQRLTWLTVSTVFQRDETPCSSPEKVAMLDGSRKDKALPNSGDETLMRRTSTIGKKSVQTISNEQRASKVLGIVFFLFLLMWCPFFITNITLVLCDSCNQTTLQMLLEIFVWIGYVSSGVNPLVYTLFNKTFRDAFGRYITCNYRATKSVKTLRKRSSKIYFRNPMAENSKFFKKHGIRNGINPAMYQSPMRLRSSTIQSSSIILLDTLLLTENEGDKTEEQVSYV
Muscarinic acetylcholine receptor M3 (Homo sapiens), sequence (P20309 whole entry, looked up): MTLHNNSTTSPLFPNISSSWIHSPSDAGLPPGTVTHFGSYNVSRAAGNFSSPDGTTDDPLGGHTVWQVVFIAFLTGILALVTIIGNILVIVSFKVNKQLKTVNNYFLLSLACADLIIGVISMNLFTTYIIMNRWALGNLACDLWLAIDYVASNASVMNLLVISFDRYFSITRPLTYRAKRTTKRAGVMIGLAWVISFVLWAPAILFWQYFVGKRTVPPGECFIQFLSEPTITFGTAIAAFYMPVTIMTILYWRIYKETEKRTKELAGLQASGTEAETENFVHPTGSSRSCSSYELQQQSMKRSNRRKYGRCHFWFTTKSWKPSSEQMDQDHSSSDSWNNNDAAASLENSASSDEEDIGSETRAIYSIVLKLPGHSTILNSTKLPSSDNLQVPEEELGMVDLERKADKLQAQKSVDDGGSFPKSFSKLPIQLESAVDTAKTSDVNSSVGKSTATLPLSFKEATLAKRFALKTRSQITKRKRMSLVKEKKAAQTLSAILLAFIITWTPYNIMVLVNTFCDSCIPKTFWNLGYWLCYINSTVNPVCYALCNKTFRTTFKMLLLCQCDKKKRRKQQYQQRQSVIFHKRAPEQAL
5-hydroxytryptamine receptor 6 (Homo sapiens), sequence (P50406 whole entry): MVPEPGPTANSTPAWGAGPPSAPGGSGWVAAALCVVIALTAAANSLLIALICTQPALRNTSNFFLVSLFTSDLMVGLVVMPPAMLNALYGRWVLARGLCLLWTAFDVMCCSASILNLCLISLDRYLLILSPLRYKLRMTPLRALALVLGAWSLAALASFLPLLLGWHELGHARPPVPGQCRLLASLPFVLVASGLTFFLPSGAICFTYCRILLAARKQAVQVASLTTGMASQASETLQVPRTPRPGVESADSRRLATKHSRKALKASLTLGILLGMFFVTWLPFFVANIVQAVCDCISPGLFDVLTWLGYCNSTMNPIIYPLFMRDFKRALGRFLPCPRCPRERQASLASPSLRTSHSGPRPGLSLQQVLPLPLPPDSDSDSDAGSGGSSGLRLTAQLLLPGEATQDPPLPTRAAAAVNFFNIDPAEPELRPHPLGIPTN

Compound	inhibition [1] [%]	inhibition [2] [%]	inhibition [3] [%]	inhibition [4] [%]	inhibition [5] [%]	inhibition [6] [%]	inhibition [7] [%]	inhibition [8] [%]	inhibition [9] [%]	inhibition [10] [%]	inhibition [11] [%]	inhibition [12] [%]	inhibition [13] [%]	inhibition [14] [%]
Cc1cc(NC(=O)NCCN2CCC(O)(Cc3ccccc3)CC2)c2ccccc2n1	82.4	10.7	69.5	31.9	24.4	21.1	62.2	92.3	26.1	3.45	91.7	8.02	4.17	25.5
Cc1c(P(=S)(c2ccccc2)c2ccccc2)n2ccccc2[n+]1C/C=C/c1ccccc1	58.1	16.3	83.2	101	71	25.8	8.18	25.7	39.9	31	40.5	43.6	20.9	36.1
CN(C)C(=O)N[C@H]1CC[C@H](CCN2CCN(c3cccc(Cl)c3Cl)CC2)CC1	95	36.3	49.7	5.62	27.8	103	99	97.3	83.4	2.57	101	69.7	6.73	92.4
CCc1nn(CCCN2CCN(c3cccc(Cl)c3)CC2)c(=O)n1CCOc1ccccc1	91.1	77.7	85.1	49.2	0.27	89.3	79.6	102	97.5	5.27	100	74.7	3.68	30.7
Cc1cc(C)c(N)c(C#Cc2cccc(F)c2)n1	4.3	17.1	65.2	18.4	-6.32	-9.97	29.9	2.41	-8.91	8.38	18.3	16.2	-2.76	-7.35
